From patent US8414885B2, “Methods and compositions for treating cancer” (priority 2009, dated 2013) come the findings set out here.

Holding throughout (assay type): cell-based, human
For one test, the system named is caspase-3. In words: Immunoblotting for caspase-3 activation in infected melanoma cells. The note with it: delta-PK infected cultures, PD150606 100 μM, 24 hrs p.i. From the text:
FIG. 6. Calpain and caspase-7 and caspace-3 are activated in delta-PK infected melanoma cells. […] Data were quantified by densitometry and expressed as the ratio of the p76/p80 and p28 densitometric units +/−SD, respectively. Representatives of three replicate experiments are shown (***p<0.001 vs. Mock). B. The immunoblots in FIG. 6A were sequentially stripped and re-probed with antibodies to activated caspase-7, activated caspase-3, and actin. Data were quantified by densitometry and results are expressed as densitometric units +/−SD (**p<0.01, ***p<0.001 vs. Mock). C. […]
Cultured cells were lysed with radioimmunoprecipitation buffer [RIPA; 20 mM Tris-HCl (pH 7.4), […], 1% Nonidet P-40, 0.1% sodium dodecyl sulfate (SDS), 0.5% sodium deoxycholate] supplemented with protease and phosphatase inhibitor cocktails (Sigma-Aldrich), and sonicated twice for 30 seconds at 25% output power with a sonicator ultrasonic processor (Misonix, Inc., Farmingdale, N.Y.). […] Protein concentration was determined by the bicinchoninic assay (Pierce, Rockford, Ill.), and 100 μg protein samples were resolved by SDS-polyacrylamide gel elecrophoresis (SDS-PAGE) and transferred to polyvinylidene fluoride membranes followed by immunoblotting. […] Quantitation was by densitometric scanning with the Bio-Rad GS-700 imaging densitometer (Bio-Rad, Hercules, Calif.). […]
For orientation: In western blotting, separated proteins are transferred to a membrane and probed.

The test system of another test is A2058 cells. Description: EtHD cell death with or without protease inhibitors, A2058. Conditions: A2058, delta-PK moi=0.5, 72 hrs p.i.; PD150606 100 μM or z-VAD-fmk 20 μM. The protocol:
(§1) FIG. 7. Delta-PK induced melanoma cell death is both calpain and caspase-dependent. A. A2058 cells were infected with delta-PK (moi=0.5) or mock-infected with PBS and cultured without or with PD150606 (100 μM), z-VAD-fmk (20 µM) or both PD150606 and z-VAD-fmk. DMSO (28 mM) was used as vehicle control. Replicate cultures (n=3) were stained with EtHD at various times p.i. and the % staining cells calculated. B. A375 cells were infected with delta-PK (moi=0.5) in the absence or presence of inhibitors and stained with EtHD+. Delta-PK infected WI-38 cells and mock infected DMSO treated cells served as controls.
(§2) Cell death was determined by trypan blue exclusion and staining with ethidium homodimer-1 (EtHD), a cell impermeable red fluorescent nuclear stain that increases intensity after binding to the DNA of dead cells. […] Dead cells were counted by four independent hemacytometer counts. […] Stained cells were counted in five randomly selected 3 mm^2 fields (≧250 cells each), and the % positive cells was calculated relative to total number of cells imaged by phase contrast microscopy (Gober M D, Laing J M, Thompson S M, Aurelian L. The growth compromised HSV-2 mutant DeltaRR prevents kainic acid-induced apoptosis and loss of function in organotypic hippocampal cultures. Brain Res 2006; 1119: 26-39). […]

For the next test, the system named is A375 cells. Description: EtHD cell death with or without protease inhibitors, A375. Conditions: A375, delta-PK moi=0.5, 72 hrs p.i.; PD150606 100 μM or z-VAD-fmk 20 μM. The protocol: as §1, §2

Peptide text beside a SMILES is read from it. * marks the point of attachment. Cbz = O=C(OCc1ccccc1)*; CH2F = FC*

As for `O=C(O)/C(S)=C/c1ccc(I)cc1` [PD150606], the “effect of inhibitor on levels of caspase-3p17 cleavage product” value in the test with caspase-3 is “increased”. The “% EtHD+ cells in delta-PK infected cultures in presence of inhibitor” value in the test on A2058 cells is 30.7+/−2.8%; in the test with A375 cells, 49.1+/−2.5%.
With `COC(=O)C[C@H](NC(=O)[C@H](C)NC(=O)[C@@H](NC(=O)OCc1ccccc1)C(C)C)C(=O)CF` [z-VAD-fmk, benzyloxcarbonyl-Val-Ala-Asp-fluormethyl ketone] (Cbz-Val-Ala-Asp(OMe)-CH2F), the “% EtHD+ cells in delta-PK infected cultures in presence of inhibitor” value was 35.8+/−2.5% in the test on A2058 cells and 49.6+/−3.7% in the test on A375 cells.
